In ChEMBL document CHEMBL1201862, “PubChem BioAssay data set” (2004):
Calls of active or inactive are those of the source.

Key:
[1] = biological target: Ras and Rab interactor 1/Tyrosine-protein kinase ABL1 (Homo sapiens, UniProt P00519+Q13671); assay type: functional;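 also: biochemical TR-FRET dose-response test measuring inhibition of binding between Rin1 and Abl proteins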
[2] = AlphaScreen signal interference compounds, dose response, artefact control for ARNT-TACC3 interaction inhibitor project, biochemical, luminescence, cherry-pick (AID 651705); assay type: functional;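 also: AlphaScreen bead proximity signal that flags compounds interfering with the detection technology; potency reflects signal decrease which marks the compound as an assay artifact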
[3] = nonselective inhibitors of cellular cAMP signaling, dose response, counter-screen for MC4R biased antagonist project, cell-based, TR-FRET cAMP detection (AID 602305); assay type: functional;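 also: U2OS cells stimulated with forskolin near its EC80 as the cAMP inducer; potency is for inhibition of forskolin-stimulated cAMP signaling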
[4] = biological target: Luciferin 4-monooxygenase (Photinus pyralis, UniProt P08659); experiment: Counter Screen for Luciferase-based Assay Positives. [Related pubchem assays: 620, 618, 411 ]
[5] = biological target: Melanocortin receptor 4 (Homo sapiens, UniProt P32245); experiment: MC4R antagonist potency on cAMP, dose response, cell-based, TR-FRET, biased antagonists (AID 602298); assay type: functional;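 also: antagonist potency against agonist-stimulated cAMP production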
[6] = system: HT-1080; experiment: cytotoxicity in HT1080 fibrosarcoma cells, cell-based, fluorescence readout (AID 620); assay type: functional; settings: Homo sapiens
[7] = biological target: Photoreceptor-specific nuclear receptor (Homo sapiens, UniProt Q9Y5X4); assay type: functional, cell-based;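 also: CHO-S cells with Gal4-NCOR and VP16-NR2E3 two-hybrid luciferase reporter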
[8] = biological target: Cytochrome P450 2C19 (Homo sapiens, UniProt P33261); experiment: Cytochrome panel assay with activity outcomes. Panel member name: p450-cyp2c19 Compounds with AC50 equal or less than 10 uM are considered active; assay type: functional; settings: read-out: AC50
[9] = ARNT/TACC3 interaction disruptors, potency, confirmation, biochemical, AlphaScreen, cherry-picked samples (AID 651703); assay type: functional, Homo sapiens;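 also: His-tagged ARNT PAS-B domain paired with GST-TACC3 E629A dimer coactivator fragment; potency of inhibitors that break up the complex and lower AlphaScreen signal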
[10] = biological target: Cytochrome P450 2C9 (Homo sapiens, UniProt P11712)
[11] = biological target: Cytochrome P450 2D6 (Homo sapiens, UniProt P10635);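 also: CYP2D6 member of a cytochrome P450 panel assay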
[12] = biological target: Prothrombin (Bos taurus, UniProt P00735); experiment: thrombin inhibition, dose response, biochemical, fluorescence polarization, uHTS hits (AID 602369); assay type: functional
[13] = NIH-3T3 fibroblast cytotoxicity, dose response, cytotoxicity control, cell-based, fluorescence, Alamar Blue, secondary assay (AID 2327); assay type: functional;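 also: NIH-3T3 mouse fibroblasts cultured with fluconazole at 8 µg/mL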
[14] = biological target: 72 kDa type IV collagenase (Homo sapiens, UniProt P08253); experiment: Dose Response validation of uHTS RPN11 inhibitor hits using a MMP-2 Fluorescence assay.; assay type: functional
[15] = biological target: T1, Rac GTPase-activating protein 1 (Homo sapiens, UniProt Q9H0H5); experiment: MgcRacGAP GTPase-activating activity inhibitors, confirmation, biochemical, ADP Hunter fluorescence, primary and confirmatory (AID 624330); assay type: functional
T1 sequence (Q9H0H5 whole entry): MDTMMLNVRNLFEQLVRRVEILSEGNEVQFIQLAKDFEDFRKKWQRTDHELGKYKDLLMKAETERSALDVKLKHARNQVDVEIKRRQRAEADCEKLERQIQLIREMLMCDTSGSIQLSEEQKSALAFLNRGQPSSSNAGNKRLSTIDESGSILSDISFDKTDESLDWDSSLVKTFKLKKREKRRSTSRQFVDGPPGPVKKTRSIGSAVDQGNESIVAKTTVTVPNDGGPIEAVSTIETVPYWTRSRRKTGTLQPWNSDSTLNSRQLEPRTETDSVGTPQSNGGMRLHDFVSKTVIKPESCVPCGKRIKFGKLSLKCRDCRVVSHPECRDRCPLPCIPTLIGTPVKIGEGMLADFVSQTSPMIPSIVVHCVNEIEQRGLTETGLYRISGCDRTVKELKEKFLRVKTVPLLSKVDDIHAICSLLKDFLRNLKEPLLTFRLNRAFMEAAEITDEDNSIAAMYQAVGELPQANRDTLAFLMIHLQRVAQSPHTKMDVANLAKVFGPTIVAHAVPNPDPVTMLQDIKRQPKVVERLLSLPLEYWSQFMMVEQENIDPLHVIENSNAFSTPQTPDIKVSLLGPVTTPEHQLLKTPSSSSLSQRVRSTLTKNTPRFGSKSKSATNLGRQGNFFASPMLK

[16] = C. albicans growth with fluconazole, confirmation, fluorescence, retest (AID 2467); assay type: functional, cell-based
[17] = biological target: T2, Carboxy-terminal domain RNA polymerase II polypeptide A small phosphatase 1 (Homo sapiens, UniProt Q9GZU7); experiment: inhibitors of CTDSP1, concentration-response testing, biochemical assay, absorbance-based, actives from ultra-high-throughput screening (AID 540297); assay type: functional
T2 sequence (Q9GZU7 whole entry): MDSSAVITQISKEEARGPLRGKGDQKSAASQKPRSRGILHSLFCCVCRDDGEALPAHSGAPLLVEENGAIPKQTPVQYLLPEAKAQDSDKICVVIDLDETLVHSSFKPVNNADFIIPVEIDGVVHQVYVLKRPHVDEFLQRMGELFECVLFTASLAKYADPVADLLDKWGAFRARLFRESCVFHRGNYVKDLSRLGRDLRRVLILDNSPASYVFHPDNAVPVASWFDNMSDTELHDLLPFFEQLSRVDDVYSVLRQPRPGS

[18] = biological target: 26S proteasome non-ATPase regulatory subunit 14 (Homo sapiens, UniProt O00487); experiment: inhibition of proteasome subunit RPN11 – biochemical, fluorescence polarization, uHTS hits, confirmation (AID 602368); assay type: functional
[19] = biological target: T3, Tyrosine-protein phosphatase non-receptor type 22 (Homo sapiens, UniProt Q9Y2R2); experiment: LYP phosphatase inhibition for selectivity, dose response, selectivity assay for LMPTP inhibitor project, biochemical, fluorescence, LYP catalytic domain (AID 652006); assay type: functional; settings: read-out: IC50_Mean
T3 sequence (Q9Y2R2 whole entry): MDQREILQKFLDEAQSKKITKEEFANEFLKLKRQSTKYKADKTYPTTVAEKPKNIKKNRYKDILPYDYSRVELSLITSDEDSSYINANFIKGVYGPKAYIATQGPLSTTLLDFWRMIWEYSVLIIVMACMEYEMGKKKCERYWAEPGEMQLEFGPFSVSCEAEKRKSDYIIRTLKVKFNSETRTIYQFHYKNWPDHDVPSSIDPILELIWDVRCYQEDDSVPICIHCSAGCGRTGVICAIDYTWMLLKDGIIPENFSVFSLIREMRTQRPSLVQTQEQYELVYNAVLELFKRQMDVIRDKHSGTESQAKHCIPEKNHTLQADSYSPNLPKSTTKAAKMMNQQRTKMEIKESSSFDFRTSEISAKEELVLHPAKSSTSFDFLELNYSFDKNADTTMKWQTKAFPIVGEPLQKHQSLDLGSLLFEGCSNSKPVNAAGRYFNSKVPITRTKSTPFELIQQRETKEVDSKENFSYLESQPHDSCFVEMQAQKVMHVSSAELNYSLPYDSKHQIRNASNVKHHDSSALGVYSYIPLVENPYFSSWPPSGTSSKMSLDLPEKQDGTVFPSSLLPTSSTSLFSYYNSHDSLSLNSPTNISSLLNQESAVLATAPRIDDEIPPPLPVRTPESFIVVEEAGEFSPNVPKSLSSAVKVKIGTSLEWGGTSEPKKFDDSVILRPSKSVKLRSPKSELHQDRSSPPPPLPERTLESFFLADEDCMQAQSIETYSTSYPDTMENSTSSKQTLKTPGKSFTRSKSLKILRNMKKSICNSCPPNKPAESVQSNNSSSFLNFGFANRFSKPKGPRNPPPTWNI

[20] = biological target: T4, Low molecular weight phosphotyrosine protein phosphatase (Homo sapiens, UniProt P24666); assay type: functional; settings: read-out: IC50_Mean;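 also: Dose-response confirmation assay measuring inhibition of LMPTP enzyme activity by fluorescence intensity read-out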
T4 sequence (P24666 whole entry): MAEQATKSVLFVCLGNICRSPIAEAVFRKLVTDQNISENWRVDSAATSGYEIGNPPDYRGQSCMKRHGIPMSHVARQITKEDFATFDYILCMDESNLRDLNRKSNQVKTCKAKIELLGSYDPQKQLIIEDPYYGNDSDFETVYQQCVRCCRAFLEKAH

[21] = biological target: T5, Short transient receptor potential channel 4 (Mus musculus, UniProt Q9QUQ5); experiment: mouse TRPC4 channel activators, dose response, cell-based, HEK293 TRPC4/mu-opioid, Fluo-4 calcium (AID 434937); assay type: functional
T5 sequence (Q9QUQ5 whole entry): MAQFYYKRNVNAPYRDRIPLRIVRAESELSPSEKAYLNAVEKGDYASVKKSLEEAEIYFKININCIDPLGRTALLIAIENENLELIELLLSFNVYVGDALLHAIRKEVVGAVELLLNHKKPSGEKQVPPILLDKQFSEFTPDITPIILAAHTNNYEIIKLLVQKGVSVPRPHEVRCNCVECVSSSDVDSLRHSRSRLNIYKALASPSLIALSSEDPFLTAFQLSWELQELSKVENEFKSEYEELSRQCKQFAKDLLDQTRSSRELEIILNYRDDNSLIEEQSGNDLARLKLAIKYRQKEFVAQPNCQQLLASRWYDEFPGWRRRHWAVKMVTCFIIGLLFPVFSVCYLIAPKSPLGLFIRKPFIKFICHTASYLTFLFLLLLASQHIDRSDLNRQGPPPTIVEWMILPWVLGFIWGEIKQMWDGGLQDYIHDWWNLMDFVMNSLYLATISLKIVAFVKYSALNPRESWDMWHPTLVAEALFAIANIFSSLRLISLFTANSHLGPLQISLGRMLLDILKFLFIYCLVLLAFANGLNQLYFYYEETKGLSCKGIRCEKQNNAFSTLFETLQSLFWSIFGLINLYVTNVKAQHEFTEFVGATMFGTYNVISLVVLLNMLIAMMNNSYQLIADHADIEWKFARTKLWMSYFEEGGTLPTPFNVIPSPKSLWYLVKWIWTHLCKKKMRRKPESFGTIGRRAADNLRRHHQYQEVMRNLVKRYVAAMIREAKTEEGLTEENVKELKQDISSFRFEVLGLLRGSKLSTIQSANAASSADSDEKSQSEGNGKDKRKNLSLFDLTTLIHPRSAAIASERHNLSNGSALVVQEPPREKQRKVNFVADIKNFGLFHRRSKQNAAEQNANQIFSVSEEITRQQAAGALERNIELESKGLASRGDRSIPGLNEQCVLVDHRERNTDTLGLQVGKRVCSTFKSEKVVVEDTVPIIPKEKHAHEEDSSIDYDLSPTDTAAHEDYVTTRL

[22] = inhibitors of intracellular T. cruzi replication, confirmation, NIH3T3 host cells, beta-gal luminescence (AID 2044); assay type: functional, cell-based;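 also: intracellular parasites grown in NIH/3T3 mouse fibroblasts as host cells; luminescent beta-galactosidase reporter signal from transgenic T. cruzi replicating inside host cells; inhibitors lower the luminescence signal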
[23] = system: Streptococcus; experiment: Group A Streptococcus viability loss, dose response, counter-screen for streptokinase expression inhibitor project, luminescence, BacTiterGlo (AID 1915); assay type: functional, organism-based;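 also: potency for reduction of bacterial viability or growth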
[24] = system: Streptococcus sp. 'group A'; experiment: growth inhibition of control SK(-) GAS strain, dose response, counter-screen for streptokinase expression inhibitor project, luminescence, kanamycin, BacTiterGlo, confirmation (AID 1900); assay type: functional, organism-based
[25] = biological target: T6, Streptokinase A (Streptococcus pyogenes serotype M1, UniProt P10520); experiment: S. pyogenes streptokinase expression inhibitors, potency, dose response, plasminogen activation absorbance, OD405 (AID 1914); assay type: functional, Streptococcus pyogenes M1 GAS;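 also: secreted streptokinase activity via plasminogen activation per viability signal from cell pellet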
T6 sequence (P10520 whole entry): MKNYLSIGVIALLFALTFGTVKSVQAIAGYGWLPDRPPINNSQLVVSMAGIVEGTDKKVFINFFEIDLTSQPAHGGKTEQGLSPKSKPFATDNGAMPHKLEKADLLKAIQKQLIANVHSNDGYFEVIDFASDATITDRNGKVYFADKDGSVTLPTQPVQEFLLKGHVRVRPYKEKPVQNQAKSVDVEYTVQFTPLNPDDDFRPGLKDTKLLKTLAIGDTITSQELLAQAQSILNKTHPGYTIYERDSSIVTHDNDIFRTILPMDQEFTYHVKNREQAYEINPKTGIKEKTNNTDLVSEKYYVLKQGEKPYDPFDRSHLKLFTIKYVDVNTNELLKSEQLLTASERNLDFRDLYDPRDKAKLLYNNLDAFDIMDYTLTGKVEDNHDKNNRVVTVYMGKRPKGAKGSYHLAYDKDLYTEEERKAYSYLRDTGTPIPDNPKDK

[26] = cytotoxicity toward NIH3T3 fibroblasts, dose response, counter-screen, cell-based, ATP luminescence, mouse fibroblasts (AID 2010); assay type: functional;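 also: cells exposed to compound for about 90 hours before reading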
[27] = HEp-2 cell cytotoxicity, dose response, cytotoxicity control for RSV inhibitor project, HTS (AID 2410); assay type: functional; settings: human respiratory syncytial virus
[28] = Luminescence Cell-Based Dose Retest to Confirm Inhibitors of Cancer Stem Cells. [Related pubchem assays (depositor defined):AID2717, AID2721]; assay type: functional; settings: Homo sapiens

Melanocortin receptor 4, sequence (P32245 whole entry): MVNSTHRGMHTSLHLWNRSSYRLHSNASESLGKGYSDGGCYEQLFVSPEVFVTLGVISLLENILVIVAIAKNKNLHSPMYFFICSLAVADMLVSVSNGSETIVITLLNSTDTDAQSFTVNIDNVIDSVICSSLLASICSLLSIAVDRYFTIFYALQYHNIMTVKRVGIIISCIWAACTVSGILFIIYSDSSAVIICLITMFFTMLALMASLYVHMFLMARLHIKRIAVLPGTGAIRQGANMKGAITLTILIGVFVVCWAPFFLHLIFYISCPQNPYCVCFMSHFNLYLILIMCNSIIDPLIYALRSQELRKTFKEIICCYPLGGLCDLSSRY
Ras and Rab interactor 1/Tyrosine-protein kinase ABL1, sequence (P00519 whole entry): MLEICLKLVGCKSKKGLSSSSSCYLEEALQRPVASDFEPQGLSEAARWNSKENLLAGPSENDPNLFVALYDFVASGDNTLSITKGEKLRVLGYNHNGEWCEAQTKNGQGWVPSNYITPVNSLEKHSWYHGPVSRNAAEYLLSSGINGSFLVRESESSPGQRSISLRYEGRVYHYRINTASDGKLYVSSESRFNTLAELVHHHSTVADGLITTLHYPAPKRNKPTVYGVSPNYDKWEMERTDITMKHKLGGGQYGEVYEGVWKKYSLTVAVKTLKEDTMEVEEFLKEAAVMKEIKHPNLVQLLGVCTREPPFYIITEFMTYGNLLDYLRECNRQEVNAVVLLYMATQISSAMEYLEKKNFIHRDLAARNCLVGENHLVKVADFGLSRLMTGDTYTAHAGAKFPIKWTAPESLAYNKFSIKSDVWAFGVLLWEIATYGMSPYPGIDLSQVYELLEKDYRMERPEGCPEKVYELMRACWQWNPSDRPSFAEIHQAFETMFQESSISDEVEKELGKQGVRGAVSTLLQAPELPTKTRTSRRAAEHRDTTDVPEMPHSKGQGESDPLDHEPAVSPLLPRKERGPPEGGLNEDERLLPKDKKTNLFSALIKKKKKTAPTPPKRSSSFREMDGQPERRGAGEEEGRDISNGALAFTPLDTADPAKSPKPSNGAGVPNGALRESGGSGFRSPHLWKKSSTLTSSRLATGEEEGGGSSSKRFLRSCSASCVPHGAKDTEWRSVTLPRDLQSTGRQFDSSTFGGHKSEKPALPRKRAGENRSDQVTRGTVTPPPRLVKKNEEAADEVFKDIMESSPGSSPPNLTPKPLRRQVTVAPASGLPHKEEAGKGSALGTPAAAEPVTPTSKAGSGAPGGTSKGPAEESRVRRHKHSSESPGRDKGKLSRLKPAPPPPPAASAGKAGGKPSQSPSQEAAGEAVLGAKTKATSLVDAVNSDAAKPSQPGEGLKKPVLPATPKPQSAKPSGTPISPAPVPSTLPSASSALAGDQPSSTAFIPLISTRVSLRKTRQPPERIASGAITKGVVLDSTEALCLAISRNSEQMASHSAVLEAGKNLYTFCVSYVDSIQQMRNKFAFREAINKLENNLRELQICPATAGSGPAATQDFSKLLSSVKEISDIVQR
Ras and Rab interactor 1/Tyrosine-protein kinase ABL1, sequence (Q13671 whole entry): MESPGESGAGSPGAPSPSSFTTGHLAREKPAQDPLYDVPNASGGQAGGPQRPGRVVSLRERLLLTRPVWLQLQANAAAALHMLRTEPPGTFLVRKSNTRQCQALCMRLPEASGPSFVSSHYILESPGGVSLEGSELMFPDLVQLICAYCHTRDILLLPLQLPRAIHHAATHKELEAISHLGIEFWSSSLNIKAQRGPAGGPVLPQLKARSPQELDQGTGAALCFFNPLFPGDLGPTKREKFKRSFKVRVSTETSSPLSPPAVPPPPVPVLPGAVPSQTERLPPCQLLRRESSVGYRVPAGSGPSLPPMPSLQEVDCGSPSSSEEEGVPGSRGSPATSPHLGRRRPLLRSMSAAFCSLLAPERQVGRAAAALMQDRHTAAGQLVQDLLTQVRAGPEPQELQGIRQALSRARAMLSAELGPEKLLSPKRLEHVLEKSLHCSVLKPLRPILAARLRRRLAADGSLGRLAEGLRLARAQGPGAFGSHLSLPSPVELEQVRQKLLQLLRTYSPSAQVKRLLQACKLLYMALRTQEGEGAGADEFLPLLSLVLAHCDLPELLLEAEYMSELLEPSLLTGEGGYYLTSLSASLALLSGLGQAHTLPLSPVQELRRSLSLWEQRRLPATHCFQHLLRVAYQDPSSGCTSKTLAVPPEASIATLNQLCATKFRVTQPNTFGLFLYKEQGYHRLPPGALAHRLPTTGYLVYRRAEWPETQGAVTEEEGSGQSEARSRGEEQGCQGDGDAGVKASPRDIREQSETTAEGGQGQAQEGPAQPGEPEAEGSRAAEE
Photoreceptor-specific nuclear receptor, sequence (Q9Y5X4 whole entry, the tested form may be a part): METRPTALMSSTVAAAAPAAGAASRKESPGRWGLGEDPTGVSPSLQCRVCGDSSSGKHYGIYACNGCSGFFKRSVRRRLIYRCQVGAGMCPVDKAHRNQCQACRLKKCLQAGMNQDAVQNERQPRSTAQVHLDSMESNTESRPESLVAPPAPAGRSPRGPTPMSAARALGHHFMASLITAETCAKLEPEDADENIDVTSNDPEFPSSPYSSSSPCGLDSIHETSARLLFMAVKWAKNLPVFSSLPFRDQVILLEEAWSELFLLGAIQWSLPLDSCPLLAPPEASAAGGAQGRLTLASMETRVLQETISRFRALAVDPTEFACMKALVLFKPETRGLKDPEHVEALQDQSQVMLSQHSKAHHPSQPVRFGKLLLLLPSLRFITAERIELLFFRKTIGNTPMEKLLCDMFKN
Cytochrome P450 2D6, sequence (P10635 whole entry): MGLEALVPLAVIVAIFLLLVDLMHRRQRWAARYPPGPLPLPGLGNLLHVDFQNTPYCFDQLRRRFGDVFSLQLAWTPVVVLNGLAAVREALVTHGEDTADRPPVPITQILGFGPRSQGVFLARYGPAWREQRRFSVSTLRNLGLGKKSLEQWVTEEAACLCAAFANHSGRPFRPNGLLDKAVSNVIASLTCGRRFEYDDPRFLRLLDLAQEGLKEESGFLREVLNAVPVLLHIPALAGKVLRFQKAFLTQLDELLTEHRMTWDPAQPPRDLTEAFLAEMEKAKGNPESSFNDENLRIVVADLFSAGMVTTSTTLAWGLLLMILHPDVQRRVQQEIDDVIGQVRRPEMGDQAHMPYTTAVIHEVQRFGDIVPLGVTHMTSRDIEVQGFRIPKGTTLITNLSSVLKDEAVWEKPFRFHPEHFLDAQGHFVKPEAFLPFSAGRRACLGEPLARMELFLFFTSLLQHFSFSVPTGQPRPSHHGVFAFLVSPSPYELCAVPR
Luciferin 4-monooxygenase, sequence (P08659 whole entry): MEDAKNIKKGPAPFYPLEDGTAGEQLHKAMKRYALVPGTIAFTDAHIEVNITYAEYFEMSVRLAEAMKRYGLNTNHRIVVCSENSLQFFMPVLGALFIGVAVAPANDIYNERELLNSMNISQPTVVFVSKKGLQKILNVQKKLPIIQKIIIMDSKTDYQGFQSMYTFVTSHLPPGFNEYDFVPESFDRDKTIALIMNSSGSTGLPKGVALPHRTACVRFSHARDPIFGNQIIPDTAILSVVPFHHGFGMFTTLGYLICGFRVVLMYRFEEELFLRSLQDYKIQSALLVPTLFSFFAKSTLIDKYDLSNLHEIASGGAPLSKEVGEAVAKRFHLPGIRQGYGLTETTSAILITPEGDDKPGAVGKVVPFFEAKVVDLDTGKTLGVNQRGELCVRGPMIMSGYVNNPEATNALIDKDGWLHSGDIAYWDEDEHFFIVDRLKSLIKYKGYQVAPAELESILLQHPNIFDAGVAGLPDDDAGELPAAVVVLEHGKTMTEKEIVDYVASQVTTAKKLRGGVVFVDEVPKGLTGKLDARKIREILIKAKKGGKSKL
Cytochrome P450 2C9, sequence (P11712 whole entry): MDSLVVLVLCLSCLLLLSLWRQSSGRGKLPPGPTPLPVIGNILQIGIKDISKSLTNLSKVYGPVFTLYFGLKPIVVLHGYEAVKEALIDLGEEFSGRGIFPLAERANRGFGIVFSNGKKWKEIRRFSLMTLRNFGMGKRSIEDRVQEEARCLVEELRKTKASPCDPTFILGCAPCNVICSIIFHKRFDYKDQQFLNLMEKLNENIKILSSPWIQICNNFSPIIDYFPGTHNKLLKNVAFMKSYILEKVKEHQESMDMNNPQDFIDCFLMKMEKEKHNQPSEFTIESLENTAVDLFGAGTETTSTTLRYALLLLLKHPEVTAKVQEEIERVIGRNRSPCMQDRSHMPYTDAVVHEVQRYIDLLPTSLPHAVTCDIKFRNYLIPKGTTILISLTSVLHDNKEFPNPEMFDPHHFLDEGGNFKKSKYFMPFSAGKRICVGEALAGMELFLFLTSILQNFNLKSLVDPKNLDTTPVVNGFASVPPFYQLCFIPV
72 kDa type IV collagenase, sequence (P08253 whole entry): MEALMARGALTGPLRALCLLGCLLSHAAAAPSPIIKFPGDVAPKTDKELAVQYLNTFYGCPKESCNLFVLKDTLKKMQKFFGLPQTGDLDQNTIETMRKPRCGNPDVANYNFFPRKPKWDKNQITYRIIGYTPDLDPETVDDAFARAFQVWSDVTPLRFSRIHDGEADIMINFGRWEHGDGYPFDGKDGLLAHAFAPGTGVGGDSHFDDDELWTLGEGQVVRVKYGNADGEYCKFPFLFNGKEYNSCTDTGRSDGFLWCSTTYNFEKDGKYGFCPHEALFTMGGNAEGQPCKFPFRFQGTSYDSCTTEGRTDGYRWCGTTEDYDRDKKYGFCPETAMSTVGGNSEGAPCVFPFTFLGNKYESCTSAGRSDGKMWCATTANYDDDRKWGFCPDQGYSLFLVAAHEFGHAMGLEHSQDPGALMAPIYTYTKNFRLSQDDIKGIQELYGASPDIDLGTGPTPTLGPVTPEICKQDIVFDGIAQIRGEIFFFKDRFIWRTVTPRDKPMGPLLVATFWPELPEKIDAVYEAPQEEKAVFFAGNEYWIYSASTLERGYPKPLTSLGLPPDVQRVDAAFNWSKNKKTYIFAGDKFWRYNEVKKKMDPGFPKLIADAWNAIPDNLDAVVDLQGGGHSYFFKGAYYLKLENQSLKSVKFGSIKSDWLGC

## CCCCSCc1[nH]c(O)nc1C(=O)CCCCC(=O)OCC
[1]
  IC50: 4.76 µM (active)

## Cc1cc(NC(=O)CC(C)C)c(=O)n(Cc2ccccc2F)c1
[2]
  AC50: 130 µM (active)

## N#Cc1cc2c(nc1SCC(=O)Nc1nccs1)CCCCC2
[3]
  IC50: 14.9 µM (inactive)
[4]
  EC50: > 100 µM (not active)
[5]
  IC50: 11.8 µM (inactive)
[6]
  EC50: > 50 µM (not active)

## O=C(Nc1cccc(OC(F)(F)F)c1)C1Cc2c(-c3ccc4c(c3)OCO4)ccnc2O1 (centres undefined)
[7]
  IC50: 3.19 µM (active)

## CCCN(C(=O)Cc1n[nH]c(N)n1)C1(C(=O)Nc2ccccc2C)CCCCC1
[8]
  AC50: 20 µM (inconclusive)
[9]
  AC50: 90.8 µM (active)
[10]
  AC50: 0.224 µM (inconclusive)
[11]
  AC50: 17.8 µM (inconclusive)

## COc1ccc(O)c(/C=N/NC(=O)c2c(C)nnn2-c2nonc2N)c1
[12]
  IC50: 54.6 µM (active)
[13]
  EC50: > 150 µM (inconclusive)
[14]
  IC50: > 100 µM (inactive)
[15]
  IC50: 79.7 µM (active)
[16]
  EC50: > 38 µM (not active)
[17]
  IC50: 6.12 µM (active)
[18]
  IC50: 13.1 µM (active)

## C/C(CC(=O)Nc1ccc(F)cc1)=N\NC(=O)c1ccccn1
[9]
  AC50: 89.2 µM (active)

## CC(Nc1nc(N2CCNCC2)nc2ccccc12)c1ccccc1 (centres undefined)
[19]
  IC50: 37.9 µM (inactive)
[20]
  IC50: 13.8 µM (active)
[21]
  EC50: 5.31 µM (active)

## Cc1nc2ccc(S(=O)(=O)Nc3cccc(-c4nc5cccnc5s4)c3)cc2s1
[7]
  IC50: 2.01 µM (active)

## Cc1ccccc1N1C(=O)NC(=O)/C(=C\NNC(=O)c2ccncc2)C1=O
[2]
  AC50: 114 µM (active)

## CN(CCc1ccccc1)C(=O)c1ccc(NC(=O)Cc2ccc(NC(=O)C3CCN(C(=O)C4CCC4)CC3)cc2)cc1
[1]
  IC50: 16.9 µM (inactive)

## CC(C)C1C(c2ccccc2)N(C)C(c2ccccc2)CC1(O)c1ccccc1 (centres undefined)
[22]
  EC50: 2.43 µM (active)
[23]
  EC50: 7.03 µM (active)
[3]
  IC50: > 64.6 µM (inactive)
[5]
  IC50: > 64.6 µM (inactive)
[24]
  EC50: 1.55 µM (active)
[25]
  EC50: 2.22 µM (active)
[26]
  EC50: > 60 µM (not active)
[27]
  CC50: 25.3 µM (active)
[28]
  AC50: 1.9 µM (active)
